Test [1] concerns the target T1, recombinant human NE transporter (Homo sapiens, UniProt P23975).
T1 construct: host or cells: MDCK
In words: Inhibition of [3H]norepinephrine uptake in MDCK cells transfected with the NE uptake transporter. It counts as cell-based. Here is the method: (§1) The ability of (1R,5S)-(+)-1-(naphthalen-2-yl)-3-azabicyclo[3.1.0]hexane for inhibiting transport of norepinephrine (NE) and/or dopamine (DA) and/or serotonin (5-HT) was evaluated using cell lines (such as the HEK 293 cell line) that stably express recombinant human NE, DA, and 5-HT transporters, respectively. Techniques for stably transfecting mammalian cell lines with neurotransmitter transporters and measuring the effects of drugs on amine uptake have been described in the literature (e.g., Eshleman A J, J Pharmacol Exp Ther 289:877-885, 1999) and are well known to those skilled in the art
(§2) Monoamine uptake was determined in MDCK, CHO-K1, and HEK-293 cell lines respectively transfected with NE, DA, and 5-HT uptake transporters by MDS Pharma Services (Taipei, Taiwan 112, R. O. C.). The cells were incubated in 5 mM Tris-HCl, and 7.5 mM HEPES buffer, pH 7.1, containing 120 mM NaCl, 5.4 mM KCl, 1.2 mM CaCl2, 1.2 mM MgSO4, 5 mM D-glucose, and 1 mM Ascorbic Acid. The cellular homogenates were incubated with radioligands and various concentrations of drugs for 10 minutes at 25° C. The [^3H]-radioligands incorporated into the cells were determined according to published methods using liquid scintillation counting (Perovic and Müller 1995; Eshleman et al., 1999). […]

Test [2] has as its target T2, recombinant human DA transporter (Homo sapiens, UniProt Q01959).
T2 construct: host or cells: CHO-K1
In words: Inhibition of [3H]dopamine uptake in CHO-K1 cells transfected with the DA uptake transporter. Type of test: cell-based. Here is the method:
as §1, §2

The subject of another test is rats. The test is described as follows: Forced swim test in rats. It counts as in vivo, rat. Conditions: 40 mg/kg p.o., data not shown.
Test [3] relates to male CD-1 (Crl.) derived mice. In words: Mouse spontaneous locomotor activity. It counts as in vivo. Here is the method: For the locomotor activity determination, male CD-1 (Crl.) derived mice were orally administered (1R,5S)-(+)-1-(naphthalen-2-yl)-3-azabicyclo[3.1.0]hexane as described in Example IV. Locomotor activity for mice in groups of 10 was assessed by placing mice individually into custom built chambers in a quiet isolated 22° C. room (conducted by MDS Pharma Services, Taipei, Taiwan 112, R. O. C.). At 15-minute intervals over 2 hours post-dosing, total travel distances (in cm) for individual animals were recorded using the Etho Vision Pro System (Noldus, USA).

For test [4], the system named is 6-OHDA-lesioned juvenile rats. The test is described as follows: Locomotor activity of juvenile rats with neonatal 6-OHDA lesions (model of ADHD). Type of test: in vivo, rat. Here is the method: The behavioral effects of (1R,5S)-(+)-1-(naphthalen-2-yl)-3-azabicyclo[3.1.0]hexane were evaluated in a model of ADHD, which can be simulated in juvenile rates with neonatal 6-hydroxydopamine (6-OHDA) lesions (Davids et al., 2003). In this animal model, the NE neurons are protected from the neurotoxic effects of 6-OHDA by pretreatment with the NE transporter inhibitor desipramine, so the NE system is largely intact and can respond to NE transporter inhibitors (Davids et al., 2002). Furthermore, the 6-OHDA lesions produce learning and memory deficits in learning models including the T maze, and active and passive avoidance tasks (Shaywitz et al., 1978; Wool et al., 1987; Takasuna and Iwasaki, 1996). Performance in these learning and memory models was improved by administration of stimulants (Shaywitz et al., 1978; Wool et al., 1987). Thus, this model incorporates both hyperactivity and learning deficits found in ADHD.
Methods of lesioning neonatal rats with 6-OHDA were carried out as detailed in Zhang et al. (2001). Briefly, on postnatal day 1 (PD 1), male Sprague-Dawley rat pups were randomly assigned to a nursing dam (10/dam). On PD 5, pups receive a subcutaneous injection of 25 mg/kg desipramine hydrochloride to protect noradrenergic neurons, followed in 45 min. by randomly assigned intracisternal injection of vehicle or 6-OHDA hydrobromide (100 μg free base) under hypothermic anesthesia. Pups were returned to nursing dams immediately after the intracranial injections. Locomotor activity was monitored individually for 90 min. in the periadolescent period on PD 25, using a microcomputer controlled infrared photobeam activity monitoring system. Locomotor activity was defined as breaking of consecutive photobeams and the activity accumulated in 5 minute bins. Behavioral testing was conducted in a novel environment (transparent plastic cages containing fresh bedding) within a grid of horizontal infrared beams. Each dose of (1R,5S)-(+)-1-(naphthalen-2-yl)-3-azabicyclo[3.1.0]hexane (1, 3 and 10 mg/kg) or methylphenidate (3 mg/kg) was dissolved in saline and given i.p. immediately prior to testing. The effects of sham versus 6-OHDA lesions on dopamine neurons in rats were quantified as decrements of DA transporters labeled with [31-1]2-(3-carbomethoxy-3-β-[4′-iodophenyl]tropane ([^3H]β-CIT), a selective DA transporter radioligand (Kula et al. 1999). Sections were preincubated (60 min., room temp [RT]) in 50 mM Tris-HCl buffer (pH 7.7) containing 120 mM NaCl and 4 mM MgCl2, then in fresh buffer (60 min) containing 2 nM [3H](3-CIT. Nonspecific binding was defined with 1 μM GBR-12909. Slides were then washed (2×5 min) in ice-cold buffer, dipped in ice-cold water, and air-dried. Radiolabeled slides and calibrated [^3H]standards were exposed to [^3H]sensitive films for 10-14 d at 4° C. Tritium-sensitive Hyperfilms were developed and fixed in Kodak D-19 for 5 min. at RT. Images were quantified with a computer-controlled MCID image analyzer. Brain regions of interest were outlined and their optical density was measured with two sections representing total binding, with two samples representing nonspecific binding. Optical density of sampled regions was measured and the amount of ligand bound within each area was calculated as nCi/mg tissue. Mean values of non-specific binding in each region were subtracted from the mean total binding to determine specific binding, which was converted into fmol/mg of radioligand bound.

Entries after “also recorded” stand apart in the source; their conditions may differ.

For orientation: IC50 means the point on the concentration scale where inhibition reaches its midpoint.

T1 sequence (P23975 whole entry): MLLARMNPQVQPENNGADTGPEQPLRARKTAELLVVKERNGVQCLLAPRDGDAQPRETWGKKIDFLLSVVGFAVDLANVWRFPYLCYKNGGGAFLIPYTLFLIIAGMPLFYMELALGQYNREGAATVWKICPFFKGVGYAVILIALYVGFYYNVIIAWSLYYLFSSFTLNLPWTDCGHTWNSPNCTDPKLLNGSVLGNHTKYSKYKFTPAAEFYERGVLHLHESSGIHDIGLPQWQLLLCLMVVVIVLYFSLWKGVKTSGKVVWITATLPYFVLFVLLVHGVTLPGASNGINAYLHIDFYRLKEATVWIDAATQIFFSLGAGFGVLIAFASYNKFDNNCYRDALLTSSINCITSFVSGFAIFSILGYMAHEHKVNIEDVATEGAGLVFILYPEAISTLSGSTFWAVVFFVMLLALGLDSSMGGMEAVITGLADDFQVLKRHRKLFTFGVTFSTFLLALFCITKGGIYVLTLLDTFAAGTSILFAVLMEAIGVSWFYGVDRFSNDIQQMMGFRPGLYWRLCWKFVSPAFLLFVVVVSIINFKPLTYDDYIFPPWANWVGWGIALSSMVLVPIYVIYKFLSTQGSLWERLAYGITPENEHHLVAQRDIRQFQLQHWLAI
T2 sequence (Q01959 whole entry): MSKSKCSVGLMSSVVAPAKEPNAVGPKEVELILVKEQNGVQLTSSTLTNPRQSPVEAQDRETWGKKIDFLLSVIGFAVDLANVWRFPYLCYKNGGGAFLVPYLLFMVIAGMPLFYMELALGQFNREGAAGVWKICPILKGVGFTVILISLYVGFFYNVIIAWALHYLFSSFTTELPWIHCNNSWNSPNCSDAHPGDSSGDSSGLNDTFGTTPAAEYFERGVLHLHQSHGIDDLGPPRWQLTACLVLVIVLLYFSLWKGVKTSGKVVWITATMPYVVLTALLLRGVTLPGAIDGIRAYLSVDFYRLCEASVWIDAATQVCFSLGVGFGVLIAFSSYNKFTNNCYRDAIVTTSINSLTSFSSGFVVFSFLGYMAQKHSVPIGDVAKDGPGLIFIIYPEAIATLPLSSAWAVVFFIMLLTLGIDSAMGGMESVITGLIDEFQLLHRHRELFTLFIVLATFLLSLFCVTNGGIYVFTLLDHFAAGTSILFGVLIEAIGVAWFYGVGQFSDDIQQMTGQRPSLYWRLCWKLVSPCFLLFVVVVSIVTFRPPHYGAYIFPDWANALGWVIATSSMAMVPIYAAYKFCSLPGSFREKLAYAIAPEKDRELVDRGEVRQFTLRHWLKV

`c1ccc2cc([C@]34CNC[C@H]3C4)ccc2c1` [(1R,5S)-(+)-1-(naphthalen-2-yl)-3-azabicyclo[3.1.0]hexane]: the results for the IC50 in test [1] and in test [2] were 6 nM and 38 nM, respectively. Also, in the test on rats, the “immobility in the forced swim test” value is “reduced immobility”. The “locomotor activity (FIG. 5)” value in test [3] (20, 40 mg/kg p.o., 15 minute epochs, p<0.05 versus vehicle) was “decreased locomotor activity at several time points”. Besides, the spontaneous locomotor activity result in test [3] (oral, distance traveled at 15-minute intervals over 2 hours) is on record as “did not significantly increase; also recorded: significantly decrease locomotor activity at several time points”. The “time over which locomotor activity was significantly reduced” value turned out to be 35 min in test [4] (1 mg/kg i.p., PD 25, 90 min test, vs saline) and 90 min in test [4] (10 mg/kg i.p., PD 25, 90 min test). Besides, in test [4] (3 mg/kg i.p., PD 25, 90 min test), the “time over which locomotor hyperactivity was significantly attenuated” value worked out at 45 min. Further, the “effect on locomotor hyperactivity” value in test [4] (1, 3 and 10 mg/kg i.p.) is given as “dose-dependently inhibited the locomotor hyperactivity”. Also, the “locomotor activity (FIGS. 7A and 7B)” value in test [4] (6-OHDA-lesioned juvenile rats at PD25, p<0.05 versus vehicle) is “reduced locomotor activity”.

(Values after patent US12042481B2, “Use of (1R,5S)-(+)-1-(naphthalen-2-yl)-3-azabicyclo[3.1.0]hexane in the treatment of conditions affected by monoamine neurotransmitters” (priority 2011, dated 2024).)
